Reference: paper PMC5267515, “In Vitro and Clinical Evaluations of the Drug-Drug Interaction Potential of a Metabotropic Glutamate 2/3 Receptor Agonist Prodrug with Intestinal Peptide Transporter 1” (Drug Metabolism and Disposition, 2017)
Entries after “also recorded” stand apart in the source; their conditions may differ. Read-outs that look alike come from different tables or passages of the source. Non-standard residues stand in square brackets, D forms with d. Residues, ends and D or L forms follow the SMILES beside them. Sar = CNCC(=O)O

Tests used:
PEPT1 [1] = molecular target: T1, PEPT1 (Homo sapiens, UniProt P46059); test: Inhibition of PEPT1-mediated [14C]LY2140023 uptake in transfected HeLa cells; conditions: for IC50: 10 μM [14C]LY2140023
T1 sequence (P46059 1-708): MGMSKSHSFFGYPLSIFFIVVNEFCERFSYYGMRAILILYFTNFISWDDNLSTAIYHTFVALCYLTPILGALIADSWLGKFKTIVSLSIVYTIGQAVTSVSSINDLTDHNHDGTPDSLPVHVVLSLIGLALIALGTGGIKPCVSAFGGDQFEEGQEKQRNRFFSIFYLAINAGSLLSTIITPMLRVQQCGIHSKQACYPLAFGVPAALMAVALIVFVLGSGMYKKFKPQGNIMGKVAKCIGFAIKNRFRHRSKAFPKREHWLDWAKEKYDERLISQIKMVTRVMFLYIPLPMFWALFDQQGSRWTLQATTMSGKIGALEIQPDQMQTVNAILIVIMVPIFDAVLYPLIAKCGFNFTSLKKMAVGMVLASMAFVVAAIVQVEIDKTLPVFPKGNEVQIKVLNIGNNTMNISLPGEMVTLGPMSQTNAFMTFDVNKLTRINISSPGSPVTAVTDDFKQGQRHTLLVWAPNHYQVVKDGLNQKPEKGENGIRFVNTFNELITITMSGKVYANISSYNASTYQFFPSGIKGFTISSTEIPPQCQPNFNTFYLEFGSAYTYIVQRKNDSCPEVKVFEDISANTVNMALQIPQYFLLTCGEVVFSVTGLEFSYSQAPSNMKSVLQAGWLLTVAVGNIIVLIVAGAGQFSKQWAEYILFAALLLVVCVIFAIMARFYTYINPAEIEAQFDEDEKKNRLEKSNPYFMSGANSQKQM
Method: Briefly, cells were seeded at a density of 65,000 cells/ml in 24-well plates. After achieving 50 to 80% confluency, cells were transfected with SLC15A1, gene for PEPT1 (accession number NM_005073) inserted in pcDNA3.1 or pcDNA3.1 empty vector (Invitrogen) using Fugene 6 (Roche, Indianapolis, IN) following the manufacturer’s protocol.
The solubility of compounds at these concentrations was checked by using a fiber-optic light source.
where [I] is an inhibitor concentration in micromoles. Top is the highest % activity in the absence of inhibitor, and S is the slope factor.

PEPT1 [2] = molecular target: T1, PEPT1; design: expressed in transfected cells; host or cells: HeLa cells (ATCC), transiently transfected with Fugene 6, pcDNA3.1 vector; method as in Zhang et al. (2004); conditions: Gly-Sar 50 μM; ref Zhang et al. (2004); read-out: IC50 against Gly-Sar; cited from earlier work
MDCK-MDR1 cells = tested on: MDCK-MDR1 cells; design: method as in data on file, Eli Lilly and Company; conditions: ref data on file, Eli Lilly and Company; cited from earlier work
[3] = Clinical drug interaction study (H8Y-MC-HBCF), plasma and urine pharmacokinetics in healthy subjects; conditions: for Vd/F: Vz/F; for Tmax: median (min–max)
Method: For the active moiety, the LLQ was 50 ng/ml and the ULQ was 5000 ng/ml.
Actual sampling times were used in the analyses with the exception of predose times, which were set to 0 hour. Area under the curve (AUC) values were determined using log-linear trapezoid methods.
The fraction of the dose excreted (fe) was also determined. For the active moiety dose, the 0.64 correction factor was used as described previously. […] The parameters were log transformed before analysis. The least squares means (LSM) for each treatment and the 90% confidence intervals (CI) for the difference in means between test and reference treatment groups were estimated from the model and back transformed from the log scale to provide estimates of the geometric means and 90% CIs for the ratio of geometric means. The analysis of tmax was based on a nonparametric method. Medians and range for treatments and the P value computed for comparison of median values using Wilcoxon signed rank test are presented.

PEPT1 [4] = molecular target: T1, PEPT1; test: Proton- and time-dependent transport of prodrug and active moiety in PEPT1 transfected HeLa cells; assay type: in vitro ADME; design: expressed in transfected cells; host or cells: HeLa cells (ATCC), transiently transfected with Fugene 6, pcDNA3.1 vector; conditions: 30 μM, pH 6.0 or 7.5, PEPT1 vs empty vector transfected HeLa cells
Method: The PEPT1 mediated [^14C]LY2140023 (30 μM) and [^14C]LY404039 (30 μM) uptake was measured in cells 24 hours post transfection. The time-dependent transport of LY2140023 and LY404039 was conducted using buffers prepared at either pH 6.0 or 7.5 as described above. The cells transfected with empty pcDNA3.1 vector were used to measure the passive diffusion of LY2140023 and LY404039. The cells were incubated for 1, 2.5, 5, 7.5, 10, and 15 minutes at room temperature and were washed, lysed, and contents quantified as described above.

PEPT1 [5] = molecular target: T1, PEPT1; design: expressed in transfected cells; method as in Han, 1999; conditions: CHO cells transfected with PEPT1, ref Han, 1999, cited from earlier work
PEPT1 [6] = molecular target: T1, PEPT1; test: System validation: proton- and concentration-dependent uptake of [14C]Gly-Sar in PEPT1 transfected HeLa cells; assay type: in vitro ADME; design: expressed in transfected cells; host or cells: HeLa cells (ATCC), transiently transfected with Fugene 6, pcDNA3.1 vector
Method: (§1) Assessment of both the proton-dependent uptake ([Liang et al., 1995]) and the concentration-dependent uptake of [^14C]Gly-Sar by the transiently transfected HeLa cells was used to validate the in vitro system. For proton-dependent uptake, [^14C]Gly-Sar was measured 24 hour post transfection at either pH 6.0 or 7.5. PEPT1- and empty vector-transfected cells were incubated with [^14C]Gly-Sar (50 µM) for 5 minutes at room temperature. Cells transfected with empty pcDNA3.1 vector were used to measure the passive diffusion of [^14C]Gly-Sar. For concentration-dependent uptake, transfected cells were incubated with [^14C]Gly-Sar at concentrations from 50 to 5000 µM for 3 minutes at room temperature. For both proton- and concentration-dependent experiments, cells were washed three times with ice-cold phosphate-buffered saline after incubation with Gly-Sar to stop uptake and then lysed with 0.3 ml 1% triton X-100 in phosphate-buffered saline for 30 minutes at room temperature. Scintillation counting was conducted to determine radioactivity, and protein levels were determined by the bicinchoninic acid method ([Smith et al., 1985]).

[7] = substrate: CSCC[C@H](N)C(=O)N[C@@]1(C(=O)O)CS(=O)(=O)[C@H]2[C@H](C(=O)O)[C@H]21; test: Concentration-dependent uptake of [14C]LY2140023 in PEPT1 transfected HeLa cells (kinetic parameters); assay type: in vitro ADME, human
Method: The concentration dependent uptake of [^14C]LY2140023, ranging from 5 up to 149 μM, was determined in PEPT1 transfected HeLa cells with 2- to 3-minute incubation at room temperature. The mean passive diffusion of prodrug at each concentration was obtained in parallel experiments in HeLa cells transfected with pcDNA3.1 empty vector and subtracted from the uptake mediated by PEPT1. The corrected data were fitted by WinNonlin Professional, version 5.0.1 or 5.3 (Certara, L.P., St. Louis, MO). The kinetic parameters of the prodrug mediated by PEPT1 were estimated by utilizing the following equation: [drawing 1] where S is the substrate concentration (μM), Vmax is the maximum uptake rate (pmol/min/mg), and Km is the concentration where uptake reaches a half of Vmax (μM).

[8] = substrate: CN(CC(=O)O)C(=O)CN; test: System validation: proton- and concentration-dependent uptake of [14C]Gly-Sar in PEPT1 transfected HeLa cells; assay type: in vitro ADME, human; conditions: other: 50 μM to 5 mM, pH 6.0
Method: as §1

[9] = IC50 against LY2140023, first of two separate experiments
[10] = IC50 against LY2140023, second of two separate experiments
[11] = Mean IC50 against LY2140023, mean of two separate experiments
[12] = LY2140023 + Valacyclovir vs LY2140023 Alone
[13] = other: experiment 1, 5 to 146 μM LY2140023, PEPT1 transfected HeLa cells, parameter ± S.E.M.
[14] = other: experiment 2, 6.4 to 149 μM LY2140023, PEPT1 transfected HeLa cells, parameter ± S.E.M.

NCC(=O)CCC(=O)O [ALA, 5-aminolevulinic acid]
IC50 (PEPT1 [1]; [9]): 1.77 ± 0.21 mM | IC50 (PEPT1 [1]; [10]): 1.56 ± 0.22 mM | IC50 (PEPT1 [1]; [11]): 1.67 mM | IC50 (PEPT1 [2]): 0.78 ± 0.26 mM

CC1=C(C(=O)O)N2C(=O)[C@@H](NC(=O)[C@H](N)c3ccc(O)cc3)[C@H]2SC1 [Cefadroxil]
IC50 (PEPT1 [1]; [9]): 4.05 ± 0.44 mM | IC50 (PEPT1 [1]; [10]): 5.93 ± 1.47 mM | IC50 (PEPT1 [1]; [11]): 4.99 mM | IC50 (PEPT1 [2]): 1.88 ± 0.35 mM

N[C@@]1(C(=O)O)CS(=O)(=O)[C@H]2[C@H](C(=O)O)[C@H]21 [LY404039]
passive permeability (MDCK-MDR1 cells): approximately 1 × 10^−6 cm/s | CL/F ([3]; LY2140023 80 mg + valacyclovir 1000 mg coadministered, geometric mean (CV%)): 20.5 (24) L/hour | AUC(0-∞) Ratio Test/Reference [3, 12]: 0.94 | Cmax Ratio Test/Reference [3, 12]: 0.92 | active moiety present at the first sampling time ([3]; after administration of the prodrug): 18 of 21 subjects | half-life ([3]; human, plasma, oral, 80 mg): 183 min | AUC(0-inf) ([3]; human, plasma, oral, 80 mg, AUC(0-∞) LS Geometric Mean, LY2140023 Alone (Reference)): 2670 ng·h/mL | AUC(0-inf) ([3]; human, plasma, oral, 80 mg, AUC(0-∞), single 80-mg dose of LY2140023 alone, geometric mean (CV%)): 2600 ng·h/mL | Cmax ([3]; human, plasma, oral, 80 mg, Cmax LS Geometric Mean, LY2140023 Alone (Reference)): 484 ng/mL | Cmax ([3]; human, plasma, oral, 80 mg, Cmax, single 80-mg dose of LY2140023 alone, geometric mean (CV%)): 477 ng/mL | Vd/F ([3]; human, plasma, oral, 80 mg, single 80-mg dose of LY2140023 alone, geometric mean (CV%)): 86.5 L | Tmax ([3]; human, plasma, oral, 80 mg, single 80-mg dose of LY2140023 alone): 4 h | AUC(0-inf) ([3]; human, plasma, oral, AUC(0-∞) LS Geometric Mean, LY2140023 + Valacyclovir (Test)): 2500 ng·h/mL | AUC(0-inf) ([3]; human, plasma, oral, AUC(0-∞), LY2140023 80 mg + valacyclovir 1000 mg coadministered, geometric mean (CV%)): 2490 ng·h/mL | Cmax ([3]; human, plasma, oral, Cmax LS Geometric Mean, LY2140023 + Valacyclovir (Test)): 447 ng/mL | Cmax ([3]; human, plasma, oral, Cmax, LY2140023 80 mg + valacyclovir 1000 mg coadministered, geometric mean (CV%)): 444 ng/mL | Vd/F ([3]; human, plasma, oral, LY2140023 80 mg + valacyclovir 1000 mg coadministered, geometric mean (CV%)): 92.2 L | Tmax ([3]; human, plasma, oral, LY2140023 80 mg + valacyclovir 1000 mg coadministered): 4 h | CL renal ([3]; human, urine and plasma, oral, 80 mg): 213 mL/min | CL/F ([3]; single 80-mg dose of LY2140023 alone, geometric mean (CV%)): 19.7 (16) L/hour | PEPT1 substrate status (PEPT1 [4]): is not a PEPT1 substrate; also recorded: not transported by PEPT1

N[C@@H](Cc1ccc(O)c(O)c1)C(=O)O [L- DOPA, L-DOPA]
inhibition at 25000 µM (PEPT1 [1]; HeLa, read-out: inhibition of [14C]LY2140023 uptake): < 50% | IC50 (PEPT1 [1]; [9]): 25.3 ± 2.57 mM | IC50 (PEPT1 [1]; [10]): 26.5 ± 9.38 mM | IC50 (PEPT1 [1]; [11]): 25.9 mM | IC50 (PEPT1 [2]): 14.9 ± 2.45 mM

CCOC(=O)[C@H](CCc1ccccc1)N[C@@H](C)C(=O)N1CCC[C@H]1C(=O)O [Enalapril]
IC50 (PEPT1 [1]; [9]): 11 ± 2.64 mM | IC50 (PEPT1 [1]; [10]): 10.3 ± 0.42 mM | IC50 (PEPT1 [1]; [11]): 10.7 mM | IC50 (PEPT1 [2]): 2.13 ± 0.36 mM

CN(CC(=O)O)C(=O)CN [Gly-Sar, glycylsarcosine] (H-Gly-[Sar]-OH)
reported Vmax (PEPT1 [5]): 3517 pmol/min/mg | Km (PEPT1 [5]; read-out: reported Km): 500 µM | IC50 (PEPT1 [1]; [9]): 1.29 ± 0.26 mM | IC50 (PEPT1 [1]; [10]): 0.69 ± 0.17 mM | IC50 (PEPT1 [1]; [11]): 0.99 mM | transport at pH 6.0 relative to pH 7.5 (PEPT1 [6]; [14C]Gly-Sar 50 µM, 5 minutes, PEPT1 transfected HeLa cells): approximately five | passive diffusion rate (PEPT1 [6]; control cells (empty pcDNA3.1 vector)): 0.0972 µL/min/mg

B1: PEPT1 (Homo sapiens) (protein)
chain: T1 sequence (P46059 1-708)
notes: expressed in transfected cells; host or cells: HeLa cells (ATCC), transiently transfected with Fugene 6, pcDNA3.1 vector
Km ([7]; other: approximate value over experiments): 30 µM | Km [7, 13]: 28.66 ± 5.01 µM | Vmax [7, 13]: 0.000238 µmol/min/mg | Km [7, 14]: 29.98 ± 5.29 µM | Vmax [7, 14]: 0.000573 µmol/min/mg | Km [8]: 427.9 µM | Vmax [8]: 3975.3 pmol/min/mg
